# Laboratory results published in PMC5397431, “Multigeneration toxicity of imidacloprid and thiacloprid to Folsomia candida” (Ecotoxicology (London, England), 2017).
# Assay: Chemical analysis of concentrations in test soil (LC-MS) and degradation half-life (DT50)
# Format: physicochemical
# Method: Soil samples for chemical analysis of imidacloprid and thiacloprid in the test soil were taken at the start of the exposure of each new generation.
# The analytical method to determine actual imidacloprid and thiacloprid concentrations in the test soils followed the principles of the QuEChERS extraction method modified from Anastasiades et al. ([2003]) and Payá et al. ([2007]). Briefly, the procedure used was as follows: approx. 1 g moist soil was taken for low concentration treatments (<1 mg/kg), and 50 µL internal standard (Imidacloprid-d4 and Thiacloprid-d4, 250 µg/L) was added. The sample was shaken for 20 min at 250 rpm with 2 mL methanol and centrifuged for 3 min at 1500 rpm. The methanol phase was passed through a granular Na2SO4 column, evaporated till dryness and the residue taken up in 3 mL acetonitrile. For high concentration samples (>1 mg/kg), the soil was first shaken with methanol and centrifuged. Subsequently an aliquot of 100 µL was taken and together with 50 µL internal standard (Imidacloprid-d4 and Thiacloprid-d4, 250 µg/L) added to 1 mL methanol, passed through a granular Na2SO4 column, evaporated to dryness and taken up in 3 mL acetonitrile. For clean-up, the acetonitrile extract was added to a tube filled with Supel QuE (C18 150 mg, PSA 150 mg, MgSO4 900 mg, Sigma Aldrich), shaken by hand for 2 min and centrifuged for 3 min at 3000 rpm. The supernatant was evaporated till dryness under gentle nitrogen stream and the residue taken up in 200 µL of a water-methanol (9/1) mixture.
# Extracts were analyzed using LC-MS and quantified by isotope dilution (imidacloprid-d4 and thiacloprid-d4). The neonicotinoids were separated on a 100 × 2.1 mm, 2.6 µm Kinetex XB-C18 column (Phenomenex), applying a gradient of 5 mM ammonium formate pH 4 buffer and methanol, at a flow rate of 0.3 mL/min. The LC system (Agilent 1200 series) was coupled to a 6410 triple quadrupole MS (Agilent) using electrospray ionization (ESI) with data acquisition in positive ion mode. The transitions for imidacloprid were 256.1 > 175/209 (quantifier/qualifier) and for imidacloprid-d4 260 > 179. For thiacloprid the transitions were253.1 > 126/90 (quantifier/qualifier) with 257 > 126 for thiacloprid-d4.
# Using data on the imidacloprid and thiacloprid concentrations measured at different times after spiking the soil in the multigeneration test, half-life (DT50) values were estimated assuming first order degradation kinetics. The equation C = C0 * e^−k*t was fitted to the data, with C = concentration at time t in days, C0 is concentration at t = 0 and k = degradation rate constant (day^−1). DT50 was derived as ln(2) / k.
smiles,measurement,setting,value
"O=[N+]([O-])NC1=NCCN1Cc1ccc(Cl)nc1 [Imidacloprid, imidacloprid]","concentration, % of the nominal concentration","LUFA 2.2 soil, after 28 days of incubation at 20 °C, all concentrations analysed",68.1–83.8%
same,"recovery, % of the nominal concentration","LUFA 2.2 soil, start of F0 exposure (T=0)",77.6–89.9%
same,concentration measured in soil,"T=0, nominal 0.01, mean ± SD (n=3)",0.0078±0.0028 mg/kg dry soil
same,concentration measured in soil,"T=0, nominal 0.1, mean ± SD (n=3)",0.082±0.0018 mg/kg dry soil
same,concentration measured in soil,"T=0, nominal 0.3, mean ± SD (n=3)",0.27±0.014 mg/kg dry soil
same,concentration measured in soil,"T=0, nominal 1.0, mean ± SD (n=3)",0.86±0.022 mg/kg dry soil
same,concentration measured in soil,"T=28 d, nominal 0.1, mean ± SD (n=3)",0.068±0.0025 mg/kg dry soil
same,concentration measured in soil,"T=28 d, nominal 0.3, mean ± SD (n=3)",0.23±0.0092 mg/kg dry soil
same,concentration measured in soil,"T=28 d, nominal 1.0, mean ± SD (n=3)",0.84±0.083 mg/kg dry soil
same,half-life,pH 5.4,≥ 125 days
